The text below walks through data of ChEMBL document CHEMBL1134749, “Synthesis and structure-activity relationships of 5-substituted pyridine analogues of 3” (Bioorg Med Chem Lett, 2001).

Test [1] addresses Nicotinic acetylcholine receptor alpha3/betaX. Briefly: (§1) Antagonistic activity against neuronal nicotinic acetylcholine receptor (alpha3-betaX subunit) in IMR 32 cell line using 100 uM of (-)-nicotine as agonist. In kind it is functional, cell-based.
The target in test [2] is Neuronal acetylcholine receptor; alpha4/beta2 (Rattus norvegicus, UniProt P09483+P12390). Kind of test: In vitro ability to displace [3H](-)-cytisine binding to whole rat brain membranes at Nicotinic acetylcholine receptor alpha4-beta2. Further details: species or system Membrane.
Neuronal acetylcholine receptor; alpha4/beta2, sequence (P09483 whole entry): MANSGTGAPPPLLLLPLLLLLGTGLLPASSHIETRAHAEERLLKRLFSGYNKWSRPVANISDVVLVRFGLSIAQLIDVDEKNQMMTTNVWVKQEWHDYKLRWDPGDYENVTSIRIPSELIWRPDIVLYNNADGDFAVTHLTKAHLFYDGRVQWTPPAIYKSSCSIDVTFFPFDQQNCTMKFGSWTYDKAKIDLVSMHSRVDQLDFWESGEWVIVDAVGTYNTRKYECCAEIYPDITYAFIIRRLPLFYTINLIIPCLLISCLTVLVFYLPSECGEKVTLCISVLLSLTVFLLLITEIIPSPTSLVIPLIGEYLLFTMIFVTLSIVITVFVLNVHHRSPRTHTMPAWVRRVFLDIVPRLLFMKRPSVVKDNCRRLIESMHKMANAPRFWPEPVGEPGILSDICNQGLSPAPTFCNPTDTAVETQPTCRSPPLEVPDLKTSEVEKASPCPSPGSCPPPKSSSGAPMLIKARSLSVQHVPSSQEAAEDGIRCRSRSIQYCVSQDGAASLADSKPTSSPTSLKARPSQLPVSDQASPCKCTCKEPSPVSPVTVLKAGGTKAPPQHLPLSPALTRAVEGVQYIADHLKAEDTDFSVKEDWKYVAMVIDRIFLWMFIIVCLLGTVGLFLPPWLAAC
Neuronal acetylcholine receptor; alpha4/beta2, sequence (P12390 whole entry): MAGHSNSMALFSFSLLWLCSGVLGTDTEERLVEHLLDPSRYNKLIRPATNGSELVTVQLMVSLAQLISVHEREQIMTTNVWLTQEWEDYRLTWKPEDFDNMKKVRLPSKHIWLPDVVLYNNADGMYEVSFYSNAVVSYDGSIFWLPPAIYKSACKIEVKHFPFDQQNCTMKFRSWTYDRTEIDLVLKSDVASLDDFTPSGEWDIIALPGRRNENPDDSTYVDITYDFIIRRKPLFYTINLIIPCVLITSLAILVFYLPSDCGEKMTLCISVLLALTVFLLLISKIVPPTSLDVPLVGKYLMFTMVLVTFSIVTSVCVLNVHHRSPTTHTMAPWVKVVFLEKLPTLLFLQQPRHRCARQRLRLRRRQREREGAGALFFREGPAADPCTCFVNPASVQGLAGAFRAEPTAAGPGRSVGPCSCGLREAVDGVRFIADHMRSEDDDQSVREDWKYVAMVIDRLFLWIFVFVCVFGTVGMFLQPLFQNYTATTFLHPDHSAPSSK
Test [3] deals with Nicotinic acetylcholine receptor alpha3/betaX (Homo sapiens) (UniProt P11230+P17787+P30926+P32297+Q05901). Kind of test: Antagonistic activity against Nicotinic acetylcholine receptor (alpha3-betaX subunit) in IMR 32 cell line using 100 uM of (-)-nicotine as agonist. In kind it is functional, cell-based.
The target in test [4] is Nicotinic acetylcholine receptor alpha3/betaX. The test is described as §1. It is filed as functional, cell-based, Homo sapiens.

`CN1CCC[C@H]1COc1cncc(-c2ccccc2C=O)c1` had an IC50 in test [1] of 6.31 µM.

Molecule `CN1CCC[C@H]1COc1cncc(-c2cccc(N)c2)c1` gave a half-maximal inhibitory concentration (IC50) in test [1] of 6.9 µM. On the same count and under the same terms, in the case of `CN1CCC[C@H]1COc1cncc(-c2cc(C(F)(F)F)cc(C(F)(F)F)c2)c1` it was 2.35 µM; in that of `CN1CCC[C@H]1COc1cncc(CCc2ccncc2)c1`, 6.3 µM. On the same count and under the same terms, in the case of `Cc1ccc(-c2cncc(OC[C@@H]3CCCN3C)c2)cc1` it was 0.8 µM.

`CN1CCC[C@H]1COc1cncc(/C=C/c2ccccc2)c1` gave an IC50 in test [1] of 4.8 µM. Still for that read-out and setting: to `CN1CCC[C@H]1COc1cncc(-c2ccc(F)c(Cl)c2)c1` belongs 7.3 µM. On to `Cc1ccc(C#Cc2cncc(OC[C@@H]3CCCN3C)c2)cc1`, for which, in test [1], the IC50 came to 1.5 µM. In test [2], this molecule displayed a Ki of 0.00031 µM. The corresponding values for `CN1CCC[C@H]1COc1cncc(/C=C/c2ccncc2)c1` are 7.6 µM and 0.00012 µM. Molecule `CN1CCC[C@H]1COc1cncc(-c2ccc(Cl)cc2)c1` yielded an IC50 in test [1] of 1.99 µM. Same read-out and setting: in the case of `CN1CCC[C@H]1COc1cncc(C#Cc2ccccc2)c1` it was 0.79 µM. Still for that read-out and setting: to `CN1CCC[C@H]1COc1cncc(-c2ccc(Cl)cc2Cl)c1` belongs 0.89 µM; to `CN1CCC[C@H]1COc1cncc(-c2cccnc2)c1`, 24.7 µM; to `CN1CCC[C@H]1COc1cncc(-c2ccco2)c1`, 7.9 µM.

Consider `CN1CCC[C@H]1COc1cncc(-c2cc3ccccc3o2)c1`, for which the IC50 in test [1] amounted to 2.9 µM. In addition, the Ki in test [2] is 0.00015 µM. For `CN1CCC[C@H]1COc1cncc(-c2cncnc2)c1`, the Max efficacy in test [3] is 38.9%. In test [2], this molecule gave a Ki of 0.00037 µM. The molecule also gave an EC50 in test [4] of 32.4 µM.

Turning to `CN1CCC[C@H]1COc1cncc(-c2cccs2)c1`, the IC50 in test [1] is 1.7 µM. Same read-out and setting: in the case of `CN1CCC[C@H]1COc1cncc(-c2cccc([N+](=O)[O-])c2)c1` it was 2.33 µM; in that of `CN1CCC[C@H]1COc1cncc(-c2ccc(F)cc2)c1`, 6.48 µM.

As for `CN1CCC[C@H]1COc1cncc(-c2ccccc2)c1`, the IC50 in test [1] is 5.1 µM. Consider `COc1ccc(-c2cncc(OC[C@@H]3CCCN3C)c2)cc1`, for which the IC50 in test [1] was determined as 6.97 µM. Same read-out and setting: in the case of `CN1CCC[C@H]1COc1cncc(-c2ccc(C(F)(F)F)cc2)c1` it was 5.71 µM; in that of `CN1CCC[C@H]1COc1cncc(-c2ccc3ccccc3c2)c1`, 3.4 µM. In test [1], `CN1CCC[C@H]1COc1cncc(-c2cc3ccccc3n2C)c1` came in with an IC50 of 6.1 µM. Regarding `CN1CCC[C@H]1COc1cncc(-c2cnc3ccccc3c2)c1`, the IC50 in test [1] was 5.1 µM. Same read-out and setting: in the case of `CN1CCC[C@H]1COc1cncc(CCc2ccccc2)c1` it was 1.1 µM. On the same count and under the same terms, in the case of `Cc1ccccc1-c1cncc(OC[C@@H]2CCCN2C)c1` it was 1.25 µM; in that of `CN1CCC[C@H]1COc1cncc(-c2cccc3ccccc23)c1`, 0.69 µM.

By IC50 is commonly meant the midpoint of a concentration-inhibition curve. A low value points to inhibition by little substance. A word on the Ki: it is the dissociation constant of the complex between target and ligand, obtained from inhibition or displacement. Usually EC50 stands for the concentration needed to bring the measured effect to its halfway point. The low end stands for a more potent agent, the high end for a less potent agent.
